From PubChem BioAssay AID210 (DTP/NCI, 2004)
Inconclusive results and toxic doses are left out. *1 amine or outer side, *2 acyl side, *3 side chain or, on linkers, in order; H or OH if unused. Where a SMILES comes first, the peptide text is derived from it. Bridges are numbered along the chain shown (N, C = ends). Roman numbers before positions name the chains, in order. [ ]: non-standard residue; d: D form. Actinocin(9to1) = Cc1c2oc3c(C)ccc(C(=O)[*:1])c3nc-2c(C(=O)[*:2])c(N)c1=O; aThr = C[C@H](O)[C@H](N)C(=O)O; NMeV = CN[C@H](C(=O)O)C(C)C; Sar = CNCC(=O)O

System: CD2F1 mice, ip Colon 26 adenocarcinoma, median survival T/C
Experiment: NCI In Vivo Anticancer Drug Screen. Data for tumor model Colon 26 Adenocarcinoma (intraperitoneal) in CD2F1 (CDF1) mice
Conditions: endpoint: median survival time, higher = longer survival
Method: The antitumor activity of compounds was measured in mice bearing transplantable tumors. Survival or tumor size were measured and the results are expressed as the measurement made in the treated group (T) divided by the measurement made in the vehicle treated control group (C). The tumor model used in this assay is Colon 26 Adenocarcinoma (intraperitoneal) in CD2F1 (CDF1) mice

For `N/C(=N\O)c1cn(C2OC(CO)C(O)C2O)c2ncnc(N)c12` (stereo not drawn), the T/C (dose: 2.0 mg/kg/injection, schedule: Q04DX003 (ip), vehicle: Klucel (hydroxypropylcellulose) (HPC)) was 116 % of control and the T/C (dose: 16.0 mg/kg/injection, schedule: Q04DX003 (ip), vehicle: Klucel (hydroxypropylcellulose) (HPC)) was 167 % of control.
For `NC(=O)c1[nH]nc(C2OC(CO)C(O)C2O)c1O` (stereo not drawn), the T/C (dose: 2.59 mg/kg/injection, schedule: Q04DX003 (ip), vehicle: saline) was 115 % of control, the T/C (dose: 4.32 mg/kg/injection, schedule: Q04DX003 (ip), vehicle: saline) was 107 % of control and the T/C (dose: 7.2 mg/kg/injection, schedule: Q04DX003 (ip), vehicle: saline) was 123 % of control. For the same compound, the T/C (dose: 12.0 mg/kg/injection, schedule: Q04DX003 (ip), vehicle: saline) was 118 % of control and the T/C (dose: 20.0 mg/kg/injection, schedule: Q04DX003 (ip), vehicle: saline) was 90 % of control.
With `CCOC(C)C(/C=N/NC(N)=S)=NNC(N)=S` (stereo not drawn) the T/C (dose: 12.5 mg/kg/injection, schedule: Q04DX003 (ip), vehicle: saline with Tween-80) was 98 % of control, the T/C (dose: 12.5 mg/kg/injection, schedule: Q04DX003 (ip), vehicle: saline) was 104 % of control and the T/C (dose: 25.0 mg/kg/injection, schedule: Q04DX003 (ip), vehicle: saline with Tween-80) was 98 % of control. The T/C (dose: 25.0 mg/kg/injection, schedule: Q04DX003 (ip), vehicle: saline) was 93 % of control, the T/C (dose: 50.0 mg/kg/injection, schedule: Q04DX003 (ip), vehicle: saline with Tween-80) was 100 % of control and the T/C (dose: 50.0 mg/kg/injection, schedule: Q04DX003 (ip), vehicle: saline) was 113 % of control. For the same compound, the T/C (dose: 100.0 mg/kg/injection, schedule: Q04DX003 (ip), vehicle: saline with Tween-80) was 99 % of control, the T/C (dose: 200.0 mg/kg/injection, schedule: Q04DX003 (ip), vehicle: saline with Tween-80) was 97 % of control and the T/C (dose: 400.0 mg/kg/injection, schedule: Q04DX003 (ip), vehicle: saline with Tween-80) was 97 % of control.
In the case of `Cc1c2oc3c(C)ccc(C(=O)N[C@@H]4C(=O)N[C@H](C(C)C)C(=O)N5CCC[C@H]5C(=O)N(C)CC(=O)N(C)[C@@H](C(C)C)C(=O)O[C@H]4C)c3nc-2c(C(=O)N[C@@H]2C(=O)N[C@H](C(C)C)C(=O)N3CCC[C@H]3C(=O)N(C)CC(=O)N(C)[C@@H](C(C)C)C(=O)O[C@H]2C)c(N)c1=O` (I: [aThr][dV]P[Sar][NMeV] / II: [aThr][dV]P[Sar][NMeV]; ester I:1-I:C, II:1-II:C; linker I:N-II:N via Actinocin(9to1)), the T/C (dose: 0.13 mg/kg/injection, schedule: Q01DX001 (ip), vehicle: saline) is reported as 92 % of control, the T/C (dose: 0.25 mg/kg/injection, schedule: Q01DX001 (ip), vehicle: saline) is reported as 99 % of control and the T/C (dose: 0.5 mg/kg/injection, schedule: Q01DX001 (ip), vehicle: saline) is reported as 110 % of control. For the same compound, the T/C (dose: 1.0 mg/kg/injection, schedule: Q01DX001 (ip), vehicle: saline) was 107 % of control, the T/C (dose: 28.0 micrograms/kg/injection, schedule: Q04DX003 (ip), vehicle: saline) was 122 % of control and the T/C (dose: 125.0 micrograms/kg/injection, schedule: Q01DX001 (ip), vehicle: saline + alcohol) was 113 % of control. For the same compound, the T/C (dose: 180.0 micrograms/kg/injection, schedule: Q04DX003 (ip), vehicle: saline + alcohol) was 123 % of control, the T/C (dose: 216.0 micrograms/kg/injection, schedule: Q04DX003 (ip), vehicle: saline) was 156 % of control and the T/C (dose: 250.0 micrograms/kg/injection, schedule: Q01DX001 (ip), vehicle: saline + alcohol) was 109 % of control. The T/C (dose: 500.0 micrograms/kg/injection, schedule: Q01DX001 (ip), vehicle: saline + alcohol) was 113 % of control and the T/C (dose: 500.0 micrograms/kg/injection, schedule: Q04DX003 (ip), vehicle: saline + alcohol) was 153 % of control.
`C[C@@]1(CO)[C@@H](O)CC[C@@]2(C)[C@H]1CC[C@H]1C[C@@H]3CC12CC[C@]3(O)CO` was tested, and the T/C (dose: 12.5 mg/kg/injection, schedule: Q04DX002 (ip), vehicle: distilled water + Tween-80) was 103 % of control, the T/C (dose: 25.0 mg/kg/injection, schedule: Q04DX002 (ip), vehicle: distilled water + Tween-80) was 109 % of control and the T/C (dose: 50.0 mg/kg/injection, schedule: Q04DX002 (ip), vehicle: distilled water + Tween-80) was 95 % of control. For the same compound, the T/C (dose: 100.0 mg/kg/injection, schedule: Q04DX002 (ip), vehicle: distilled water + Tween-80) was 109 % of control, the T/C (dose: 200.0 mg/kg/injection, schedule: Q04DX002 (ip), vehicle: distilled water + Tween-80) was 91 % of control and the T/C (dose: 400.0 mg/kg/injection, schedule: Q04DX002 (ip), vehicle: distilled water + Tween-80) was 116 % of control.
